{"source": "patent US4749710A", "about": "“Immunosuppressive agents” (priority 1985, dated 1988)", "key": {"[1]": {"tested_on": "murine cytotoxic T-lymphocyte responses", "assay": "cells", "format": "cell-based", "settings": "for CTL activity (% specific ^51 Cr release): 90:1 effector to target", "source_text": "Immunosuppressive Activity of Vitamin D compounds on cytotoxic T lymphocyte Responses-General Test Description\nCytotoxic thymus-derived lymphocytes (CTL) constitute an important aspect of immune function and, as a result, play a key role in the rejection of grafted cells, tissues and organs. It is, therefore, essential to suppress CTL generation in a clinical situation in which CTL function is antithetical to the desired outcome as, for example, in transplantation. Cytotoxic T-lymphocytes have been studied for several years by many investigators and methods to evaluate CTL responses in vitro are well established.\nAs described below, CTL responses as affected by Vitamin D derivatives, were studied in vitro using cells from lab animals and human volunteers. Cytotoxic T-lymphocytes were generated from responder lymphoid cells in tissue culture medium during an incubation period of 6 days by exposure to foreign stimulator cells, i.e. from a genetically disparate source. A portion of the resultant effector cells were CTL capable of killing fresh cells related to the stimulator cells employed in the 6 day culture. To detect killing of cells by CTL, fresh target cells were incubated in excess ^51 chromium (as sodium chromate) until they were extensively labelled. Since target cells will retain the internalized radioisotope as long as they are viable but release the label when they are killed, CTL activity was assessed by quantitating the chromium released from target cells after a 4 or 18 hour incubation with CTL. Immunosuppression produced by Vitamin D derivatives was gauged as the ability to inhibit CTL responses during the initial incubation period relative to control cultures to which no Vitamin D derivative was added.\nFemale BALB/c By and C57BL/6 mice were obtained from Jackson Laboratories and were used between 8 and 10 weeks of age. Mice were given food and water ad libitum and were kept in a 12 hour light and 12 hour dark cycle.\nFor murine cultures, minimal essential medium with Hank's salts was supplemented to 1 millimolar with sodium pyruvate, to 0.1 millimolar with nonessential amino acids, to 2 millimolar with 1-glutamine, to 10% (v/v) with heat-inactivated fetal bovine serum, to 50 micrograms per ml with gentamicin, and to 1000 milligrams per liter with sodium bicarbonate and was used as tissue culture medium.\nStock solutions of Vitamin D derivatives were made in argon-saturated ethanol at a final concentration of 1×10^-2 molar, were covered with argon before sealing and were stored at -20° C. in the dark. Reduced lighting conditions were always employed when working with compounds. Compounds were diluted in tissue culture medium to 1×10^-4 molar and all subsequent dilutions were done in tissue culture medium containing 1% v/v ethanol. The final dilution into culture vessels was 1:10 thus keeping the vehicle concentration constant at 0.1% while varying the concentration of compound as tabulated in the results. For purposes of control, mixed leukocyte cultures were incubated in medium only (medium control) or in medium containing a final concentration of 0.1% ethanol (vehicle control).\nMurine cytotoxic T-lymphocytes were generated in mixed leukocyte cultures by known methods. Specifically, single cell suspensions were prepared from spleens by gentle disruption in balanced salt solution (Hanks' balanced salt solution supplemented to 10%, v/v, with fetal bovine serum). After sedimentation on ice to remove particulate debris, cell suspensions were centrifuged at 400xg and were resuspended in fresh balanced salt solution. Cells to be used as stimulator cells were precluded from proliferating or generating cytotoxic T-lymphocytes by exposure to 1000 rads of gamma irradiation using a ^137 cesium source. […]"}, "[2]": {"tested_on": "human cytotoxic T-lymphocyte responses", "assay": "Inhibition of human CTL responses (mixed leukocyte-tumor cultures, HT-144 melanoma, ^51 Cr release)", "format": "cell-based", "settings": "for inhibition at 1 µM / inhibition at 0.1 µM: Homo sapiens, T-lymphocyte, read-out: Inhibition of CTL activity (%)", "procedure": "Human cells for the tests described below were taken from four donors designated I, II, III, and IV in the tables below.\nStock solutions of Vitamin D derivatives were prepared as they were prepared above in the murine tests.\nHuman cytotoxic T-lymphocytes were generated in mixed leukocyte-tumor cultures by known methods. Specifically, blood from normal volunteer donors was drawn into heparinized syringes, diluted 1:1 with calcium-magnesium free Hanks' balanced salt solution (Ca-Mg free HBSS), and layered over lymphocyte separation medium (Litton Bionetics, Kensington, MD). After centrifugation at 500xg for 20-30 min at room temperature, peripheral blood mononuclear cells were harvested from the interface. The peripheral blood mononuclear leukocytes were centrifuged and resuspended in Ca-Mg free HBSS and were subsequently separated from platelets by centrifugation at 500xg through a solution of 20% sucrose and 1% human AB serum in Ca-Mg free HBSS. The cells were washed once and finally resuspended in tissue culture medium. […] Cells to be used as stimulator cells in mixed leukocyte-tumor cultures were irradiated with 10,000 rads of gamma irradiation to preclude proliferation in culture. Mixed leukocyte-tumor cell cultures were established in 16 mm tissue culture wells at a final volume of 1.5 ml per well containing 2×10^6 peripheral blood mononuclear leukocytes and 5×10^4 irradiation-inactivated stimulator cells. In order to prevent the generation of nonspecific cytotoxic cells in these cultures, hydrocortisone sodium succinate was added to each culture at a final concentration of 1×10^-5 M. Mixed leukocyte-tumor cultures were incubated for 6 days in a humidified atmosphere of 5% CO2 in air.\nLabelled target cells were washed free of unbound isotope by 3 serial washes in tissue culture medium and were finally resuspended at a concentration of 5×10^4 cells per ml.\nAssays of human cytotoxic T-lymphocytes were done by known methods. Specifically, one-tenth ml aliquots of ^51 Cr-labelled target cell suspension were added to \"half area\" microtest plates and were incubated at 37° C. for 18 hours in a humidified atmosphere of 5% CO2 in air to permit the cells to adhere and spread on the floor of each well. Culture medium was then aspirated from each well and was replaced with 0.1 ml of tissue culture medium containing cells harvested from mixed leukocyte-tumor cultures which had been processed as described for murine mixed leukocute cultures, above. Control wells for measurement of spontaneous ^51 Cr release received medium without effector cells and wells for measurement of maximal releasable ^51 Cr received 0.1 ml of 2% sodium dodecyl sulfate in distilled water. After overnight incubation at 37° in a humidified atmosphere of 5% CO2 in air, 0.05 ml of cell-free supernatant was withdrawn from each well and the amount of released ^51 Cr was quantitated using a gamma spectrometer. The percentage of specific ^51 Cr release (CTL activity) and the percent inhibition of CTL activity were calculated with the same formulas used above for the murine CTL assay.\nTests conducted on human cytotoxic T-lymphocyte responses are reported as the mean±standard error of the mean from triplicate ^51 Cr release determinations on pooled cells from duplicate control or test cultures."}, "[3]": {"settings": "Test 1 (hexafluoro compounds), donor I, 1 × 10^-6 molar, 0.1% ethanol, effector to target 8:1"}, "[4]": {"settings": "Test 1 (hexafluoro compounds), donor I, 1 × 10^-7 molar, 0.1% ethanol, effector to target 8:1"}}, "note": "Like-named read-outs stand apart in the source and are kept apart here.", "data": [{"molecule": "C=C1/C(=C\\C=C2/CCC[C@]3(C)[C@@H]([C@H](C)CC4CC(C)(O)C(=O)O4)CC[C@@H]23)C[C@@H](O)C[C@@H]1O", "note": "(stereo partly drawn) [1α,25-(OH)2 --D3-(26,23)-lactone, 1α,25-Dihydroxycholecalciferol-26,23-lactone]", "values": [{"measurement": "inhibition at 10 µM", "setting": "[1]; Mus musculus, T-lymphocyte, Table I, 1 × 10^-5 molar, vs vehicle control, read-out: Inhibition of CTL activity (%)", "result": 80, "unit": "%"}, {"measurement": "inhibition at 1 µM", "setting": "[1]; Mus musculus, T-lymphocyte, Table I, 1 × 10^-6 molar, vs vehicle control, read-out: Inhibition of CTL activity (%)", "result": 63, "unit": "%"}, {"measurement": "inhibition at 0.1 µM", "setting": "[1]; Mus musculus, T-lymphocyte, Table I, 1 × 10^-7 molar, vs vehicle control, read-out: Inhibition of CTL activity (%)", "result": 37, "unit": "%"}, {"measurement": "inhibition at 0.01 µM", "setting": "[1]; Mus musculus, T-lymphocyte, Table I, 1 × 10^-8 molar, vs vehicle control, read-out: Inhibition of CTL activity (%)", "result": 9, "unit": "%"}, {"measurement": "inhibition at 0.001 µM", "setting": "[1]; Mus musculus, T-lymphocyte, Table I, 1 × 10^-9 molar, vs vehicle control, read-out: Inhibition of CTL activity (%)", "result": 3, "unit": "%"}, {"measurement": "inhibition at 0.0001 µM", "setting": "[1]; Mus musculus, T-lymphocyte, Table I, 1 × 10^-10 molar, vs vehicle control, read-out: Inhibition of CTL activity (%)", "result": 7, "unit": "%"}, {"measurement": "CTL activity (% specific ^51 Cr release)", "setting": "[1]; Table I, 1 × 10^-5 molar", "result": 11, "unit": "% specific ^51 Cr release"}, {"measurement": "CTL activity (% specific ^51 Cr release)", "setting": "[1]; Table I, 1 × 10^-6 molar", "result": 20, "unit": "% specific ^51 Cr release"}, {"measurement": "CTL activity (% specific ^51 Cr release)", "setting": "[1]; Table I, 1 × 10^-7 molar", "result": 34, "unit": "% specific ^51 Cr release"}, {"measurement": "CTL activity (% specific ^51 Cr release)", "setting": "[1]; Table I, 1 × 10^-8 molar", "result": 49, "unit": "% specific ^51 Cr release"}, {"measurement": "CTL activity (% specific ^51 Cr release)", "setting": "[1]; Table I, 1 × 10^-9 molar", "result": 52, "unit": "% specific ^51 Cr release"}, {"measurement": "CTL activity (% specific ^51 Cr release)", "setting": "[1]; Table I, 1 × 10^-10 molar", "result": 50, "unit": "% specific ^51 Cr release"}, {"measurement": "suppression of murine cytotoxic T-lymphocyte responses (in words)", "setting": "[1]; in vitro", "result": "suppress murine cytotoxic T-lymphocyte responses"}]}, {"molecule": "C=C1/C(=C\\C=C2/CCC[C@]3(C)[C@@H]([C@H](C)C=CCC(O)(C(F)(F)F)C(F)(F)F)CC[C@@H]23)C[C@@H](O)C[C@@H]1O", "note": "[26,26,26,27,27,27-Hexafluoro-1α,25-dihydroxy-Δ^22-cholecalciferol]", "values": [{"measurement": "inhibition at 1 µM", "setting": "[2]; [3]", "result": 80, "unit": "%"}, {"measurement": "inhibition at 0.1 µM", "setting": "[2]; [4]", "result": 64, "unit": "%"}, {"measurement": "CTL activity (% specific ^51 Cr release)", "setting": "[2]; [3]", "result": "13 ± 0.1", "unit": "% specific ^51 Cr release"}, {"measurement": "CTL activity (% specific ^51 Cr release)", "setting": "[2]; [4]", "result": "23 ± 2", "unit": "% specific ^51 Cr release"}]}, {"molecule": "C=C1/C(=C\\C=C2/CCC[C@]3(C)[C@@H]([C@H](C)CCCC(O)(C(F)(F)F)C(F)(F)F)CC[C@@H]23)C[C@@H](O)C[C@@H]1O", "note": "[26,26,26,27,27,27-hexafluoro-1α,25-dihydroxycholecalciferol]", "values": [{"measurement": "inhibition at 0.1 µM", "setting": "[2]", "result": 64, "unit": "%"}, {"measurement": "inhibition at 1 µM", "setting": "[2]", "result": 77, "unit": "%"}, {"measurement": "CTL activity (% specific ^51 Cr release)", "setting": "[2]; [3]", "result": "15 ± 2", "unit": "% specific ^51 Cr release"}, {"measurement": "CTL activity (% specific ^51 Cr release)", "setting": "[2]; [4]", "result": "23 ± 3", "unit": "% specific ^51 Cr release"}]}]}
